Data set [1] deals with ICAM-1 expression in BEAS2B cells. Description: Poly I:C-induced ICAM-1 expression in BEAS2B cells. Type of data set: cell-based, human. Particulars: Homo sapiens, BEAS-2B, read-out: PolyIC/ICAM1 IC50 (BEAS2B). How it is done:
Poly I:C was used in these studies as a simple, RNA virus mimic. Poly I:C-Oligofectamine mixture (1 μg/mL Poly I:C, ±2% Oligofectamine, 25 μL; Invivogen Ltd., San Diego, Calif., and Invitrogen, Carlsbad, Calif., respectively) was transfected into BEAS2B cells (human bronchial epithelial cells, ATCC). Cells were pre-incubated with final concentrations of test compounds for 2 hr and the level of ICAM-1 expression on the cell surface was determined by cell-based ELISA. At a time point 18 hr after poly I:C transfection, cells were fixed with 4% formaldehyde in PBS (100 μL) and then endogenous peroxidase was quenched by the addition of washing buffer (100 μL, 0.05% Tween in PBS: PBS-Tween) containing 0.1% sodium azide and 1% hydrogen peroxide. Cells were washed with wash-buffer (3×200 μL). and after blocking the wells with 5% milk in PBS-Tween (100 μL) for 1 hr, the cells were incubated with anti-human ICAM-1 antibody (50 μL; Cell Signaling Technology, Danvers, Mass.) in 1% BSA PBS overnight at 4° C.
The cells were washed with PBS-Tween (3×200 μL) and incubated with the secondary antibody (100 μL; HRP-conjugated anti-rabbit IgG, Dako Ltd., Glostrup, Denmark). The cells were then incubated with of substrate (50 μL) for 2-20 min, followed by the addition of stop solution (50 μL, 1N H2SO4). The ICAM-1 signal was detected by reading […] the absorbance at 450 nm against a reference wavelength of 655 nm using a spectrophotometer. The cells were then washed with PBS-Tween (3×200 μL) and total cell numbers in each well were determined by reading absorbance at 595 nm after Crystal Violet staining (50 μL of a 2% solution in PBS) and elution by 1% SDS solution (100 μL) in distilled water. The measured OD 450-655 readings were corrected for cell number by dividing with the OD595 reading in each well. The inhibition of ICAM-1 expression was calculated at each concentration of test compound by comparison with vehicle control.

Data set [2] has as its target p38 MAPKα isoform (MAPK14) (Homo sapiens (Human), UniProt Q16539). In words: p38 MAPKα enzyme inhibition (FRET, Z-LYTE). It is filed as biochemical. How it is done:
The enzyme inhibitory activities of compounds disclosed herein were determined by FRET using synthetic peptides labelled with both donor and acceptor fluorophores (Z-LYTE, Invitrogen Ltd., Paisley, UK). The inhibitory activities of test compounds against the p38 MAPKα isoform (MAPK14: Invitrogen), were evaluated indirectly by determining the level of activation/phosphorylation of the down-stream molecule, MAPKAP-K2. […] The mixture was incubated for 1 hr at RT. Development reagent (protease, 5 μL) was added for 1 hr prior to detection in a fluorescence microplate reader (Varioskan® Flash, ThermoFisher Scientific). In all cases, the site-specific protease cleaves non-phosphorylated peptide only and eliminates the FRET signal. Phosphorylation levels of each reaction were calculated using the ratio of coumarin emission (donor) over fluorescein emission (acceptor), for which low ratios indicate high phosphorylation and high ratios indicate low phosphorylation levels.

The test system of the next data set is d-U937 cells. Description: Cell viability: MTT assay. Type of data set: cell-based, human. Particulars: 1 μg/mL. How it is done:
Differentiated U937 cells were pre-incubated with each test compound (final concentration 1 μg/mL or 10 μg/mL in 200 μL media indicated below) under two protocols: the first for 4 hr in 5% FCS RPMI1640 media and the second in 10% FCS RPMI1640 media for 24 h. The supernatant was replaced with new media (200 μL) and MTT stock solution (10 μL, 5 mg/mL) was added to each well. After incubation for 1 hr the media were removed, DMSO (200 μL) was added to each well and the plates were shaken lightly for 1 hr prior to reading the absorbance at 550 nm. The percentage loss of cell viability was calculated for each well relative to vehicle (0.5% DMSO) treatment. Consequently an apparent increase in cell viability for drug treatment relative to vehicle is tabulated as a negative percentage.
A general note: Tetrazolium assays rely on reduction of a dye to a coloured formazan, in cell work by metabolically active cells.

A further data set addresses p38MAPKγ (MAPK12) (Homo sapiens (Human), UniProt P53778). In words: p38 MAPKγ enzyme inhibition (FRET, Z-LYTE). It is filed as biochemical. On the procedure:
The enzyme inhibitory activities of compounds disclosed herein were determined by FRET using synthetic peptides labelled with both donor and acceptor fluorophores (Z-LYTE, Invitrogen Ltd., Paisley, UK). […] Development reagent (protease, 5 μL) was added for 1 hr prior to detection in a fluorescence microplate reader (Varioskan® Flash, Thermo Scientific). In all cases, the site-specific protease cleaves non-phosphorylated peptide only and eliminates the FRET signal. Phosphorylation levels of each reaction were calculated using the ratio of coumarin emission (donor) over fluorescein emission (acceptor), for which low ratios indicate high phosphorylation and high ratios indicate low phosphorylation levels.

A further data set has as its target GSK 3α enzyme isoform (Homo sapiens (Human), UniProt P49840). In words: GSK 3α enzyme inhibition (FRET, Z-LYTE). It is filed as biochemical. Particulars: read-out: IC50 Values for Enzyme Inhibition GSK3α. On the procedure: The enzyme inhibitory activities of compounds disclosed herein were determined by FRET using synthetic peptides labelled with both donor and acceptor fluorophores (Z-LYTE, Invitrogen Ltd., Paisley, UK).
The inhibitory activities of test compounds against the GSK 3α enzyme isoform (Invitrogen), were evaluated by determining the level of activation/phosphorylation of the target peptide.
The GSK3-α protein (500 ng/mL, 2.5 μL) was mixed with the test compound (2.5 μL at either 4 μg/mL, 0.4 μg/mL, 0.04 μg/mL, or 0.004 μg/mL) for 2 hr at RT. The FRET peptide (8 μM, 2.5 μL), which is a phosphorylation target for GSK3α, and ATP (40 μM, 2.5 μL) were then added to the enzyme/compound mixture and the resulting mixture incubated for 1 hr. Development reagent (protease, 5 μL) was added for 1 hr prior to detection in a fluorescence microplate reader (Varioskan® Flash, ThermoFisher Scientific).
In all cases, the site-specific protease cleaves non-phosphorylated peptide only and eliminates the FRET signal. Phosphorylation levels of each reaction were calculated using the ratio of coumarin emission (donor) over fluorescein emission (acceptor), for which low ratios indicate high phosphorylation and high ratios indicate low phosphorylation levels.

The structures appear in SMILES notation.

Sequence of p38 MAPKα isoform (MAPK14) (Q16539 whole entry, canonical isoform): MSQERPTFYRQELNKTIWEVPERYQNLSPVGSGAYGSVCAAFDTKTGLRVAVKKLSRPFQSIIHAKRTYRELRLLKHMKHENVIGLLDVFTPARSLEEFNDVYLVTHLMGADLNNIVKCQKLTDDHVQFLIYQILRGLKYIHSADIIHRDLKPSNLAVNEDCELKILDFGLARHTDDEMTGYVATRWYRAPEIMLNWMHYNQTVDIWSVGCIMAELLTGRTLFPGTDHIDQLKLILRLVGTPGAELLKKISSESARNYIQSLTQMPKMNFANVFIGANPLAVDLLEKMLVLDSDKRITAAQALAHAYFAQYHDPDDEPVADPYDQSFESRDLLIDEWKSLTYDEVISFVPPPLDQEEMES
Sequence of GSK 3α enzyme isoform (P49840 whole entry, canonical isoform): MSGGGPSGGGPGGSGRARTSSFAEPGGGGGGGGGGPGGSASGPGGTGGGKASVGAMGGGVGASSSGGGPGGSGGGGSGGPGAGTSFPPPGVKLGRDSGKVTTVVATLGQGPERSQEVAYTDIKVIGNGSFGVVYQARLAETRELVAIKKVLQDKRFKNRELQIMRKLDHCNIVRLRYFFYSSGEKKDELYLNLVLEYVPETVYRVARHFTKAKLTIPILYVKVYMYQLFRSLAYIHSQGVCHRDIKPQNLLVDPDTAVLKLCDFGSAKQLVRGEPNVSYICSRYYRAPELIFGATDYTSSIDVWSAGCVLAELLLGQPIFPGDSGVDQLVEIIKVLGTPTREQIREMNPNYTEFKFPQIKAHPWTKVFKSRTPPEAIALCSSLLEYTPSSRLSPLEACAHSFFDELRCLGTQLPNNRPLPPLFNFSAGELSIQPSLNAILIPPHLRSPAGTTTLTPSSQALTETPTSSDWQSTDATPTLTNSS
Sequence of p38MAPKγ (MAPK12) (P53778 whole entry): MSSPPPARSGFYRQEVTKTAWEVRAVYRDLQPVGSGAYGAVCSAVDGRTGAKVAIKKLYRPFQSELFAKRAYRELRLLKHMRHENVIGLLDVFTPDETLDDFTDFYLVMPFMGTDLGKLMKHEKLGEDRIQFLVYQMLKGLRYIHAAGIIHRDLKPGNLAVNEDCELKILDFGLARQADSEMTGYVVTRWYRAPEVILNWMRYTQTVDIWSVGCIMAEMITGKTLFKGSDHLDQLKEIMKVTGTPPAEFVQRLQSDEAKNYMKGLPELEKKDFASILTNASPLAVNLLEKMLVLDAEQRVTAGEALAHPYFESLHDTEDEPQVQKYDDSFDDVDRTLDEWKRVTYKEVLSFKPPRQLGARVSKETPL

`Cc1ccc(-n2nc(C(C)(C)C)cc2NC(=O)Nc2ccc(Oc3ccnc(Nc4ccc(O)cc4Cl)n3)c3ccccc23)cc1` [Example 31, 1-(3-(tert-butyl)-1-(p-tolyl)-1H-pyrazol-5-yl)-3-(4-((2-((2-chloro-4-hydroxyphenyl)amino)pyrimidin-4-yl)oxy)naphthalen-1-yl)urea]: the IC50 in data set [1] was 80 nM; in data set [2] it was 118 nM; at p38MAPKγ (MAPK12), over 1580 nM; on GSK 3α enzyme isoform it was over 1580 nM. Besides, the “MTT Assay Cell viability at time point in d-U937 Cells” value (shortened to “MTT Assay Cell viability”) with d-U937 cells (4 h) was “−ve (−ve and +ve indicate the value is below and above respectively, the no significant effect threshold defined as 30% inhibition at 1 μg/mL at the time point indicated)”; with d-U937 cells (24 h), “−ve (−ve and +ve indicate the value is below and above respectively, the no significant effect threshold defined as 30% inhibition at 1 μg/mL at the time point indicated)”.

On to `Cc1ccc(-n2nc(C(C)(C)C)cc2NC(=O)Nc2ccc(Oc3ccnc(Nc4cccc(C)c4)n3)c3ccccc23)cc1` [Example 12, 1-(3-(tert-butyl)-1-(p-tolyl)-lH-pyrazol-5-yl)-3-(4-((2-(m-tolylamino)pyrimidin-4-yl)oxy)naphthalen-1-yl)urea], for which the IC50 in data set [1] is 2.7 nM; in data set [2], 169 nM; on p38MAPKγ (MAPK12), over 16700 nM; at GSK 3α enzyme isoform, over 16700 nM. Moreover, the “MTT Assay Cell viability” value in the data set on d-U937 cells (4 h) is “−ve (−ve and +ve indicate the value is below and above respectively, the no significant effect threshold defined as 30% inhibition at 1 μg/mL at the time point indicated)”; in the data set with d-U937 cells (24 h) it was “−ve (−ve and +ve indicate the value is below and above respectively, the no significant effect threshold defined as 30% inhibition at 1 μg/mL at the time point indicated)”.

For the compound `Cc1ccc(-n2nc(C(C)(C)C)cc2NC(=O)Nc2ccc(Oc3ccnc(Nc4cccc(Cl)c4)n3)c3ccccc23)cc1` [Example 13, 1-(3-(tert-butyl)-1-(p-tolyl)-1H-pyrazol-5-yl)-3-(4-((2-((3-chlorophenyl)amino)pyrimidin-4-yl)oxy)naphthalen-1-yl)urea], the IC50 in data set [1] was 3 nM; in data set [2] it was 262 nM; against p38MAPKγ (MAPK12) it was over 16200 nM; on GSK 3α enzyme isoform, over 16200 nM. Also, the “MTT Assay Cell viability” value in the data set on d-U937 cells (4 h) was “−ve (−ve and +ve indicate the value is below and above respectively, the no significant effect threshold defined as 30% inhibition at 1 μg/mL at the time point indicated)”; in the data set with d-U937 cells (24 h) it was “−ve (−ve and +ve indicate the value is below and above respectively, the no significant effect threshold defined as 30% inhibition at 1 μg/mL at the time point indicated)”.

Consider `Cc1ccc(-n2nc(C(C)(C)C)cc2NC(=O)Nc2ccc(Oc3ccnc(Nc4cccc(F)c4)n3)c3ccccc23)cc1` [Example 15, 1-(3-(tert-butyl)-1-(p-tolyl)-1H-pyrazol-5-yl)-3-(4-((2-((3-fluorophenyl)amino)pyrimidin-4-yl)oxy)naphthalen-1-yl)urea], for which the IC50 was 9.3 nM in data set [1], 155 nM in data set [2], over 16600 nM at p38MAPKγ (MAPK12) and over 16600 nM on GSK 3α enzyme isoform. The “MTT Assay Cell viability” value with d-U937 cells (4 h) was “−ve (−ve and +ve indicate the value is below and above respectively, the no significant effect threshold defined as 30% inhibition at 1 μg/mL at the time point indicated)”; with d-U937 cells (24 h), “−ve (−ve and +ve indicate the value is below and above respectively, the no significant effect threshold defined as 30% inhibition at 1 μg/mL at the time point indicated)”.

Regarding `Cc1ccc(-n2nc(C(C)(C)C)cc2NC(=O)Nc2ccc(Oc3ccnc(Nc4ccc(O)cc4F)n3)c3ccccc23)cc1` [Example 30, 1-(3-(tert-butyl)-1-(p-tolyl)-1H-pyrazol-5-yl)-3-(4-((2-((2-fluoro-4-hydroxyphenyl)amino)pyrimidin-4-yl)oxy)naphthalen-1-yl)urea], the IC50 in data set [1] is 11 nM; in data set [2], 68 nM; against p38MAPKγ (MAPK12), over 1620 nM; at GSK 3α enzyme isoform it was over 1620 nM. The “MTT Assay Cell viability” value in the data set with d-U937 cells (4 h) was “−ve (−ve and +ve indicate the value is below and above respectively, the no significant effect threshold defined as 30% inhibition at 1 μg/mL at the time point indicated)”; in the data set on d-U937 cells (24 h), “−ve (−ve and +ve indicate the value is below and above respectively, the no significant effect threshold defined as 30% inhibition at 1 μg/mL at the time point indicated)”.

`Cc1ccc(-n2nc(C(C)(C)C)cc2NC(=O)Nc2ccc(Oc3ccnc(Nc4ccccc4C)n3)c3ccccc23)cc1` [Example 21, 1-(3-(tert-butyl)-1-(p-tolyl)-1H-pyrazol-5-yl)-3-(4-((2-(o-tolylamino)pyrimidin-4-yl)oxy)naphthalen-1-yl)urea]: the IC50 is 36 nM in data set [1], 33 nM in data set [2], over 1670 nM against p38MAPKγ (MAPK12) and over 1670 nM at GSK 3α enzyme isoform. Further, the “MTT Assay Cell viability” value in the data set with d-U937 cells (4 h) was “−ve (−ve and +ve indicate the value is below and above respectively, the no significant effect threshold defined as 30% inhibition at 1 μg/mL at the time point indicated)”; with d-U937 cells (24 h), “−ve (−ve and +ve indicate the value is below and above respectively, the no significant effect threshold defined as 30% inhibition at 1 μg/mL at the time point indicated)”.

For `Cc1ccc(-n2nc(C(C)(C)C)cc2NC(=O)Nc2ccc(Oc3ccnc(Nc4ccccc4F)n3)c3ccccc23)cc1` [Example 4, 1-(3-(tert-butyl)-1-(p-tolyl)-1H-pyrazol-5-yl)-3-(4-((2-((2-fluorophenyl)amino)pyrimidin-4-yl)oxy)naphthalen-1-yl)urea], the IC50 in data set [1] is 144 nM; in data set [2], 165 nM; at p38MAPKγ (MAPK12) it was 8200 nM; on GSK 3α enzyme isoform it was over 16600 nM. For the same compound, the “MTT Assay Cell viability” value was “−ve (−ve and +ve indicate the value is below and above respectively, the no significant effect threshold defined as 30% inhibition at 1 μg/mL at the time point indicated)” in the data set with d-U937 cells (4 h); “−ve (−ve and +ve indicate the value is below and above respectively, the no significant effect threshold defined as 30% inhibition at 1 μg/mL at the time point indicated)” in the data set on d-U937 cells (24 h).

(Values after patent US9724347B2, “1-pyrazolyl-3-(4-((2-anilinopyrimidin-4-yl)oxy)napththalen-1-yl) ureas as P38 MAP knase inhibitors” (Respivert Ltd., priority 2011, dated 2017).)
